As usually defined, the EC50 is the concentration that produces a half-maximal response.

Where only a bound is given, the exact number is not on record here.

The values that follow come from patent publication US11505558B1, “Antiviral heterocyclic compounds” (Enanta Pharmaceuticals, Inc., priority 2019, dated 2022).

The experiment concerns genotype A, "Long" strain RSV. The experiment can be described thus: RSV-A assay (CPE, ATPlite readout in Hep-2 cells). Conditions: human respiratory syncytial virus, HEp-2, Hep-2 cells, genotype A "Long" strain RSV, MOI 0.1; read-out: Human RSV-A (“Long” strain) EC50. Type of experiment: cell-based. A digest of the protocol: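 Protection from RSV-induced cytopathic effect, measured as ATPlite luminescence after 5 days, gave EC50 values. Assay used genotype A Long strain at MOI 0.1 on Hep-2 cells seeded at 8,000/well in DMEM growth media with 10% FBS; compounds tested as 2-fold dilutions in duplicate.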
(In ATP-based viability assays light output follows the ATP content of the culture.)
On to `CC(C)(O)CNC(=O)Nc1cc(C(=O)NC[C@](O)(c2cc3c(c(-c4ccc(F)cc4)n2)OC[C@]3(C)C(N)=O)C(F)(F)F)cc2cccnc12` [Example 412], for which the EC50 is less than 200 nM.

As for `C[C@]1(C(N)=O)COc2c1cc([C@@](O)(CNC(=O)c1cc(NC(=O)NC3CNC3)c3ncccc3c1)C(F)(F)F)nc2-c1ccc(F)cc1` [Example 413], the EC50 is more than 200 nM. With `C[C@]1(C(N)=O)COc2c1cc([C@@](O)(CNC(=O)c1cc(NC(=O)NC3COC3)c3ncccc3c1)C(F)(F)F)nc2-c1ccc(F)cc1` [Example 414], the EC50 was less than 200 nM. The value for `C[C@]1(C(N)=O)COc2c1cc([C@@](O)(CNC(=O)c1cc(NC(=O)NC3CC3)c3ncccc3c1)C(F)(F)F)nc2-c1ccc(F)cc1` [Example 415] was less than 200 nM. For the compound `C[C@]1(C(N)=O)COc2c1cc([C@@](O)(CNC(=O)c1ccc3nc(N)oc3c1)C(F)(F)F)nc2-c1ccc(F)cc1` [Example 425], the EC50 is less than 200 nM. In the case of `C[C@]1(C(N)=O)COc2c1cc([C@@](O)(CNC(=O)c1ccc3nc(N)oc3c1)C(F)(F)F)nc2-c1ccc(F)c(Cl)c1` [Example 426], the EC50 was less than 200 nM. For `COc1cc(C(=O)NC[C@](O)(c2cc3c(c(-c4ccc(F)cc4)n2)OC[C@]3(C)C(N)=O)C(F)(F)F)cc2cn(C)nc12` [Example 427], the EC50 is less than 200 nM. The value for `COc1cc(C(=O)NC[C@](O)(c2cc3c(c(-c4ccc(F)c(Cl)c4)n2)OC[C@]3(C)C(N)=O)C(F)(F)F)cc2cn(C)nc12` [Example 428] was less than 200 nM; that for `C[C@]1(C(N)=O)COc2c1cc([C@@](O)(CNC(=O)c1ccc3nc(N)sc3c1)C(F)(F)F)nc2-c1ccc(F)c(Cl)c1` [Example 432] was less than 200 nM; that for `COc1cc(C(=O)NC[C@](O)(c2cc3c(c(-c4ccc(Cl)c(F)c4)n2)OC[C@]3(C)C(N)=O)C(F)(F)F)cc2sc(N)nc12` [Example 434] was less than 200 nM. With `COc1cc(C(=O)NC[C@](O)(c2cc3c(c(-c4ccc(C)cc4)n2)OC[C@]3(C)C(N)=O)C(F)(F)F)cc2sc(N)nc12` [Example 435], the EC50 was less than 200 nM. The value for `CN(C)c1nc2ccc(C(=O)NC[C@](O)(c3cc4c(c(-c5ccc(F)cc5)n3)OC[C@]4(C)C(N)=O)C(F)(F)F)cc2s1` [Example 438] was less than 200 nM; that for `CNc1nc2ccc(C(=O)NC[C@](O)(c3cc4c(c(-c5ccc(F)cc5)n3)OC[C@]4(C)C(N)=O)C(F)(F)F)cc2s1` [Example 439] was less than 200 nM. The value for `C[C@]1(C(N)=O)COc2c1cc([C@@](O)(CNC(=O)c1ccc3nc(NC4CC4)sc3c1)C(F)(F)F)nc2-c1ccc(F)cc1` [Example 440] was less than 200 nM; that for `C[C@]1(C(N)=O)COc2c1cc([C@@](O)(CNC(=O)c1ccc3nc(N)sc3c1)C1CC1)nc2-c1ccc(F)cc1` [Example 441] was less than 200 nM. The same measure for `C[C@]1(C(N)=O)COc2c1cc([C@@](O)(CNC(=O)c1cc(O)c3nc(N)sc3c1)C(F)(F)F)nc2-c1ccc(F)cc1` [Example 442]: less than 200 nM; for `C[C@]1(C(N)=O)COc2c1cc([C@@](O)(CNC(=O)c1cc(F)c3nc(N)sc3c1)C(F)(F)F)nc2-c1ccc(F)cc1` [Example 443]: less than 200 nM. For `Cn1c(N)nc2cc(C(=O)NC[C@](O)(c3cc4c(c(-c5ccc(F)cc5)n3)OC[C@]4(C)C(N)=O)C(F)(F)F)ccc21` [Example 447], the EC50 is more than 200 nM. The value for `C[C@]1(C(N)=O)COc2c1cc([C@@](O)(CNC(=O)c1ccc3nc(N)sc3c1)C(F)(F)F)nc2-c1ccc(Cl)cc1` [Example 448] was less than 200 nM; that for `C[C@]1(C(=O)NC2(C#N)CC2)COc2c1cc([C@@](O)(CNC(=O)c1cc(OC3CC3)c3ncccc3c1)C(F)(F)F)nc2-c1ccc(F)cc1` [Example 450] was less than 200 nM. For `CC(C)(C)NC(=O)[C@@]1(C)COc2c1cc([C@@](O)(CNC(=O)c1cc(OC3CC3)c3ncccc3c1)C(F)(F)F)nc2-c1ccc(F)cc1` [Example 453], the EC50 was less than 200 nM. For `CC(=O)NCCNC(=O)[C@@]1(C)COc2c1cc([C@@](O)(CNC(=O)c1cc(OC3CC3)c3ncccc3c1)C(F)(F)F)nc2-c1ccc(F)cc1` [Example 454], the EC50 was more than 200 nM. The value for `CC(=O)NCCCNC(=O)[C@@]1(C)COc2c1cc([C@@](O)(CNC(=O)c1cc(OC3CC3)c3ncccc3c1)C(F)(F)F)nc2-c1ccc(F)cc1` [Example 455] was less than 200 nM. As for `CCCNC(=O)[C@@]1(C)COc2c1cc([C@@](O)(CNC(=O)c1cc(OC3CC3)c3ncccc3c1)C(F)(F)F)nc2-c1ccc(F)cc1` [Example 456], the EC50 was less than 200 nM. As for `C[C@]1(C(=O)NCCCOC(N)=O)COc2c1cc([C@@](O)(CNC(=O)c1cc(OC3CC3)c3ncccc3c1)C(F)(F)F)nc2-c1ccc(F)cc1` [Example 457], the EC50 is less than 200 nM. Turning to `C[C@]1(C(=O)NC(=N)N)COc2c1cc([C@@](O)(CNC(=O)c1cc(OC3CC3)c3ncccc3c1)C(F)(F)F)nc2-c1ccc(F)cc1` [Example 458], the EC50 is more than 200 nM. The value for `CNC(=O)NCCNC(=O)[C@@]1(C)COc2c1cc([C@@](O)(CNC(=O)c1cc(OC3CC3)c3ncccc3c1)C(F)(F)F)nc2-c1ccc(F)cc1` [Example 461] was more than 200 nM; that for `CNC(=O)NCCCNC(=O)[C@@]1(C)COc2c1cc([C@@](O)(CNC(=O)c1cc(OC3CC3)c3ncccc3c1)C(F)(F)F)nc2-c1ccc(F)cc1` [Example 462] was more than 200 nM; that for `C[C@]1(C(=O)NCCN)COc2c1cc([C@@](O)(CNC(=O)c1cc(OC3CC3)c3ncccc3c1)C(F)(F)F)nc2-c1ccc(F)cc1` [Example 463] was more than 200 nM. The value for `C[C@]1(C(=O)N2CC[C@@H](O)C2)COc2c1cc([C@@](O)(CNC(=O)c1cc(OC3CC3)c3ncccc3c1)C(F)(F)F)nc2-c1ccc(F)cc1` [Example 468] was more than 200 nM; that for `C[C@]1(C(=O)N2CC[C@H](O)C2)COc2c1cc([C@@](O)(CNC(=O)c1cc(OC3CC3)c3ncccc3c1)C(F)(F)F)nc2-c1ccc(F)cc1` [Example 469] was more than 200 nM; that for `C[C@]1(C(=O)N2CC(O)C2)COc2c1cc([C@@](O)(CNC(=O)c1cc(OC3CC3)c3ncccc3c1)C(F)(F)F)nc2-c1ccc(F)cc1` [Example 470] was more than 200 nM. The same measure for `CC(C)CCNC(=O)[C@@]1(C)COc2c1cc([C@@](O)(CNC(=O)c1cc(OC3CC3)c3ncccc3c1)C(F)(F)F)nc2-c1ccc(F)cc1` [Example 472]: more than 200 nM; for `CNC(=O)CCNC(=O)[C@@]1(C)COc2c1cc([C@@](O)(CNC(=O)c1cc(OC3CC3)c3ncccc3c1)C(F)(F)F)nc2-c1ccc(F)cc1` [Example 474]: less than 200 nM; for `C[C@]1(C(=O)NCC(N)=O)COc2c1cc([C@@](O)(CNC(=O)c1cc(OC3CC3)c3ncccc3c1)C(F)(F)F)nc2-c1ccc(F)cc1` [Example 476]: less than 200 nM. `C[C@]1(C(=O)NCCNC(N)=O)COc2c1cc([C@@](O)(CNC(=O)c1cc(OC3CC3)c3ncccc3c1)C(F)(F)F)nc2-c1ccc(F)cc1` [Example 478]: the EC50 was more than 200 nM. The value for `C[C@]1(C(=O)NCc2ccc[nH]2)COc2c1cc([C@@](O)(CNC(=O)c1cc(OC3CC3)c3ncccc3c1)C(F)(F)F)nc2-c1ccc(F)cc1` [Example 480] was less than 200 nM; that for `CC(C)(O)CCNC(=O)[C@@]1(C)COc2c1cc([C@@](O)(CNC(=O)c1cc(OC3CC3)c3ncccc3c1)C(F)(F)F)nc2-c1ccc(F)cc1` [Example 483] was less than 200 nM; that for `C[C@]1(C(=O)NCCc2ccccc2)COc2c1cc([C@@](O)(CNC(=O)c1cc(OC3CC3)c3ncccc3c1)C(F)(F)F)nc2-c1ccc(F)cc1` [Example 486] was more than 200 nM. Regarding `C[C@]1(C(=O)NCCCc2ccccc2)COc2c1cc([C@@](O)(CNC(=O)c1cc(OC3CC3)c3ncccc3c1)C(F)(F)F)nc2-c1ccc(F)cc1` [Example 487], the EC50 is more than 200 nM. The value for `CC(C)(O)C(F)(F)CNC(=O)[C@@]1(C)COc2c1cc([C@@](O)(CNC(=O)c1cc(OC3CC3)c3ncccc3c1)C(F)(F)F)nc2-c1ccc(F)cc1` [Example 488] was less than 200 nM; that for `C[C@]1(C(=O)NCC2(O)CC2)COc2c1cc([C@@](O)(CNC(=O)c1cc(OC3CC3)c3ncccc3c1)C(F)(F)F)nc2-c1ccc(F)cc1` [Example 489] was less than 200 nM. Consider `C[C@]1(C(=O)NCc2ccoc2)COc2c1cc([C@@](O)(CNC(=O)c1cc(OC3CC3)c3ncccc3c1)C(F)(F)F)nc2-c1ccc(F)cc1` [Example 490], for which the EC50 is less than 200 nM. The value for `C[C@]1(C(=O)NCCC2(O)CC2)COc2c1cc([C@@](O)(CNC(=O)c1cc(OC3CC3)c3ncccc3c1)C(F)(F)F)nc2-c1ccc(F)cc1` [Example 491] was less than 200 nM; that for `COc1cc(C(=O)NC[C@](O)(c2cc3c(c(-c4ccc(F)cc4)n2)OC[C@]3(C)C(=O)NCCC(C)(C)O)C(F)(F)F)cc2cccnc12` [Example 494] was less than 200 nM.

As to `CC(C)(O)CNC(=O)[C@@]1(C)COc2c1cc([C@@](O)(CNC(=O)c1cc(Cl)c3ncccc3c1)C(F)(F)F)nc2-c1ccc(F)cc1` [Example 496], the EC50 was less than 200 nM. In the case of `CC(C)(O)CNC(=O)[C@@]1(C)COc2c1cc([C@@](O)(CNC(=O)c1ccc3nc(N)oc3c1)C(F)(F)F)nc2-c1ccc(F)cc1` [Example 498], the EC50 is less than 200 nM. The value for `Cc1cnc2c(OC3CC3)cc(C(=O)NC[C@](O)(c3cc4c(c(-c5ccc(F)cc5)n3)OC[C@]4(C)C(=O)NCC(C)(C)O)C(F)(F)F)cc2c1` [Example 499] was less than 200 nM. The same measure for `CC(C)(O)CNC(=O)[C@@]1(C)COc2c1cc([C@@](O)(CNC(=O)c1ccc3nc(N)sc3c1)C(F)(F)F)nc2-c1ccc(F)c(Cl)c1` [Example 500]: less than 200 nM; for `COc1cc(C(=O)NC[C@](O)(c2cc3c(c(-c4ccc(F)cc4)n2)OC[C@]3(C)C(=O)NCC(C)(C)O)C(F)(F)F)cc2sc(N)nc12` [Example 502]: less than 200 nM.
